The results in this text go back to ChEMBL document CHEMBL2094269, “WEHI/Eskitis Trypanosoma b. brucei screening data”.

Several values for one entry are separate records, joined by “and”; a condition that tells them apart may be missing. Equal entries are not always repeated.

The subject of series [1] is Trypanosoma brucei brucei. As to the kind of experiment: microbe, parasite or virus in culture. In kind it is functional, organism-based, STIB 795.
Description: DNDI: Inhibition of Human African Trypanosomiasis (HAT), STIB 795, in vitro
Series [2] is described as follows: DNDI: Cytotoxicity against human MRC-5 lung fibroblast cells. As to conditions: IC50.

With `CCOC(=O)/C=C\n1nnc2ccccc21`, the IC50 in series [1] (Trypanosoma brucei, STIB 795) is 0.503 µM; in series [2] it was greater than 41.7 µM.
Regarding `O=C1Nc2ccc(OC(F)(F)F)cc2C1=O`, the IC50 in series [1] (Trypanosoma brucei, STIB 795) was 4.72 µM; in series [2] it was greater than 41.7 µM.
For `O=C1/C(=C\c2cccnc2)CCc2ccccc21` the same measures were 5.02 µM and greater than 20.8 µM.
For `N=C(NOC(=O)N1CCOCC1)c1ccccc1` the same measures were 1.19 µM and greater than 4.17 µM.
In the same order, the values of `Cc1[nH]c2ccccc2c1/C=C1\SC(=N)N(c2nccs2)C1=O` are 2.15 µM and greater than 20.8 µM.
Take `C=CCS(=O)(=O)c1nc2ccccc2s1`: the half-maximal inhibitory concentration (IC50) in series [1] (Trypanosoma brucei, STIB 795) was 5.73 µM; in series [2], greater than 20.8 µM.
`Cc1cc(C)c2c(N)c3cccc(C)c3nc2n1`: the IC50 in series [1] (Trypanosoma brucei, STIB 795) came out at 0.35 µM; in series [2], 0.9 µM.
In the case of `NCCc1c[nH]c2ccc(C3CCCCC3)cc12`, the IC50 in series [1] (Trypanosoma brucei, STIB 795) is 1.28 µM; in series [2] it was greater than 20.8 µM.
In the same order, the values of `Clc1ccc2nnnc(-c3ccccc3)c2c1` are 2.81 µM and 4.48 µM.
In the same order, the values of `NC1=C(Cl)C(=O)c2ccccc2C1=O` are 2.44 µM and greater than 41.7 µM.
For `CN(C)c1ccc(/C=C/c2cc[n+](C)cc2)cc1` the same measures were 0.458 µM and greater than 20.8 µM.
Turning to `Cc1ccccc1C(=O)Nc1ccccn1`, the IC50 in series [1] (Trypanosoma brucei, STIB 795) is 1.22 µM; in series [2], greater than 41.7 µM.
In the same order, the values of `Nc1ccc2ccc3cccnc3c2n1` are 2.4 µM and greater than 4.17 µM.
For `Oc1nncc(N/N=C/c2ccccn2)n1` the same measures were 5.64 µM and greater than 20.8 µM.
In the same order, the values of `CC1=NN(C(=O)c2ccccc2O)C(C)(O)C1` (stereo unspecified) are 0.66 µM and greater than 1.04 µM.
Consider `CC[n+]1c(/C=C2\SC=C(c3ccccc3)N2C)ccc2cc(C)ccc21`, for which the IC50 is 0.416 µM in series [1] (Trypanosoma brucei, STIB 795) and greater than 10.4 µM in series [2].
For the compound `O=C(CC1(O)C(=O)Nc2ccc(I)cc21)c1cccs1` (stereo unspecified), the IC50 is 0.931 µM in series [1] (Trypanosoma brucei, STIB 795) and greater than 41.7 µM in series [2].
For `COc1ccc(-c2nc(Nc3ccc(F)cc3F)c3ccccc3n2)cc1OC` the same measures were 7.04 µM and greater than 41.7 µM.
For `CCOC(=O)c1ccc(CN2C(=O)C(=O)c3cc(OC(F)(F)F)ccc32)o1` the same measures were 4.03 µM and greater than 20.8 µM.
Regarding `COc1ccc(N2C(=O)CN(Cc3sccc3C)C2=S)cc1Cl`, the IC50 in series [1] (Trypanosoma brucei, STIB 795) is 4.94 µM; in series [2], greater than 41.7 µM.
For `O/N=C1C=C/C(=N\O)c2ncccc2/1` the same measures were 2.32 µM and 4.89 µM.
In the same order, the values of `Cc1ccc(CN(C)C)c(O)c(=O)c1` are 5.63 µM and greater than 20.8 µM.
On to `O=C(O)c1n[nH]c2c1CCCCCC2`, for which the IC50 is no more than 2.64 µM in series [1] (Trypanosoma brucei, STIB 795) and greater than 4.17 µM in series [2].
In the same order, the values of `CCc1ccc(/C=N\n2cnnc2)cc1` are 0.647 µM and greater than 41.7 µM.
Take `CC(=O)Cc1ccc2cccc(O)c2n1`: the IC50 in series [1] (Trypanosoma brucei, STIB 795) is 4.56 µM; in series [2], greater than 4.17 µM.
`Clc1ccnc2c1ccc1nn[nH]c12`: the IC50 in series [1] (Trypanosoma brucei, STIB 795) was 4.39 µM; in series [2], greater than 41.7 µM.
In the same order, the values of `CCOc1ccc(/C=N/NC(=N)N)cc1` are 5.66 µM and greater than 41.7 µM.
For `Nc1ccsc1/C=C/c1cccs1`, the IC50 is 5.05 µM in series [1] (Trypanosoma brucei, STIB 795) and greater than 41.7 µM in series [2].
In the case of `Cc1n[nH]c(C)c1/N=N/N1CCOCC1`, the IC50 was found to be 0.7 µM in series [1] (Trypanosoma brucei, STIB 795) and 3.61 µM in series [2].
Take `OC12C[C@@H](C3CO[C@@H]1O3)n1nnnc1N2`: the IC50 in series [1] (Trypanosoma brucei, STIB 795) was 4.84 µM; in series [2], greater than 20.8 µM.
For `[O-][n+]1onc2cc(Cl)c3nonc3c21` the same measures were 5.23 µM and greater than 4.17 µM.
In the same order, the values of `O=C(c1ccccc1)c1ccc(O)c(O)c1` are 1.2 µM and greater than 41.7 µM.
As to `Oc1cccc2ccc(CNC3CC3)nc12`, the IC50 in series [1] (Trypanosoma brucei, STIB 795) was 5.36 µM; in series [2] it was greater than 20.8 µM.
In the same order, the values of `Cc1nc2c(cc(O)c3ccccc32)s1` are 5.47 µM and greater than 41.7 µM.
In the same order, the values of `Cc1cc(C)c2c(c1)CC(C)(C)C(=O)C2=O` are 3.3 µM and greater than 41.7 µM.
In the same order, the values of `Cc1cc(Cl)c2c(N)c(C)cc(C)c2n1` are 4.09 µM and greater than 41.7 µM.
On to `NC1CCCc2c1[nH]c1ccc(Cl)cc21` (stereo unspecified), for which the IC50 in series [1] is 0.823 µM and 2.29 µM; in series [2] it was greater than 20.8 µM.
As to `NC(N)=N/N=C1/C(=O)Nc2ccc(F)cc21`, the IC50 is 1.42 µM in series [1] (Trypanosoma brucei, STIB 795) and greater than 41.7 µM in series [2].
For `O=C1Nc2ccccc2/C1=C/c1ccccn1`, the IC50 was 5.23 µM in series [1]; 5.25 µM in series [1] (Trypanosoma brucei, STIB 795); greater than 20.8 µM in series [2].
For `C=CCNc1nc(N)c(/C(N)=N\C#N)s1`, the IC50 was 3.21 µM in series [1] (Trypanosoma brucei, STIB 795) and greater than 41.7 µM in series [2].
Turning to `CC1(C)CC(=S)C=C(N2CCCCC2)C1`, the IC50 in series [1] (Trypanosoma brucei, STIB 795) was 1.95 µM; in series [2] it was greater than 41.7 µM.
In the same order, the values of `CCn1c2cccc(=O)c-2nc2ccccc21` are less than 0.04 µM and greater than 20.8 µM.
In the same order, the values of `Nc1ccc(Nc2coc3ccccc23)cc1` are 3.68 µM and greater than 20.8 µM.
For `CSC(=S)N/N=C(\C)c1ccncn1`, the IC50 in series [1] (Trypanosoma brucei, STIB 795) was 5.02 µM; in series [2] it was greater than 4.17 µM.
In the same order, the values of `O=C(NO)c1sc2ccccc2c1Cl` are 3.76 µM and greater than 41.7 µM.
In the same order, the values of `COc1cccc2c(N)c3c(cnn3C)nc12` are 1.21 µM and greater than 4.17 µM.
Consider `CC(C)(C)c1ccc(/C=N/n2cnnc2)cc1`, for which the IC50 was 0.49 µM in series [1] (Trypanosoma brucei, STIB 795) and greater than 41.7 µM in series [2].
Regarding `NC(=O)c1ccc(Nc2ccccc2)[nH]c1=O`, the IC50 came out at 5.52 µM in series [1] (Trypanosoma brucei, STIB 795) and 5.28 µM in series [2].
For `Cc1ccc(C(=O)C(CO)n2ccnc2)cc1` (stereo unspecified), the IC50 in series [1] (Trypanosoma brucei, STIB 795) was 2.05 µM; in series [2], greater than 41.7 µM.
For `Cc1cc(Cl)n(C)c2nc3ccccc3c1-2`, the IC50 was 0.631 µM in series [1] (Trypanosoma brucei, STIB 795) and greater than 10.4 µM in series [2].
In the same order, the values of `CC(C)(C)C/C(=N\NC(=N)N)c1ccccc1` are 5.39 µM and greater than 20.8 µM.
For `C/N=c1\nnc(Nc2ccccc2O)c(N)o1` the same measures were 0.287 µM and 4.68 µM.
On to `Cc1cccc(N2CCN(CCN)CC2)c1C`, for which the IC50 in series [1] (Trypanosoma brucei, STIB 795) was 5.21 µM; in series [2], greater than 41.7 µM.
In the same order, the values of `CCCCOc1ccccc1/C=N/NC(=N)N` are 5.38 µM and greater than 41.7 µM.
In the same order, the values of `O=C(COc1ccc(Cl)cc1Cl)NO` are 0.921 µM and greater than 20.8 µM.
For `CCCCNCc1[nH]c2ccccc2c1Cl` the same measures were 3.1 µM and greater than 20.8 µM.
In the case of `CCN1CCO/C1=C\C=C\C1=[N+](CC)CCO1`, the IC50 in series [1] (Trypanosoma brucei, STIB 795) is 0.166 µM; in series [2], greater than 41.7 µM.
With `Nc1ccc2c(c1)C(=O)C(=O)c1cc(N)ccc1-2`, the IC50 in series [1] (Trypanosoma brucei, STIB 795) is 0.975 µM; in series [2], greater than 20.8 µM.
In the case of `O=C1CN(Cc2ccccc2)c2ccccc2N1`, the IC50 was 1.01 µM in series [1] (Trypanosoma brucei, STIB 795) and 8.3 µM in series [2].
In the same order, the values of `CCCCOc1ccc(CSC(=N)N)cc1` are 5.48 µM and greater than 20.8 µM.
For `O=C(NNc1cccccc1=O)c1ccccc1` the same measures were 5.18 µM and greater than 10.4 µM.
Turning to `CN1c2ccccc2N(C)C1c1ccc(O)cc1`, the IC50 is 3.47 µM in series [1] (Trypanosoma brucei, STIB 795) and greater than 41.7 µM in series [2].
In the same order, the values of `C/C(CC(C)(C)C1CCCCC1)=N/NC(N)N` are 1.4 µM and greater than 4.17 µM.
Regarding `CC1=NN(c2ccc3cccc(O)c3n2)C(=O)C1`, the half-maximal inhibitory concentration (IC50) in series [1] (Trypanosoma brucei, STIB 795) was 1.31 µM; in series [2], greater than 10.4 µM.
Take `Cn1cnn(C2CC(=O)C3OCC2O3)c1=S` (stereo unspecified): the IC50 is 2.07 µM in series [1]; 3.7 µM in series [1] (Trypanosoma brucei, STIB 795); greater than 20.8 µM in series [2].
With `CC1CC2=C(C(=O)c3ccccc3C2=O)C(C)O1` (stereo unspecified), the IC50 is 5.59 µM in series [1] (Trypanosoma brucei, STIB 795) and greater than 41.7 µM in series [2].
For `COc1ccc(O)c(/C=N/Nc2ccccn2)c1` the same measures were 4.69 µM and greater than 20.8 µM.
Take `CNC(C)(C)Cc1c2c(cc3c1CCC3)CCC2`: the IC50 in series [1] (Trypanosoma brucei, STIB 795) is 4.62 µM; in series [2] it was greater than 41.7 µM.
On to `COc1cc(OC)c2nc(C)c3c(c2c1)CNC3`, for which the IC50 is 2.5 µM in series [1] (Trypanosoma brucei, STIB 795) and 7.02 µM in series [2].
Regarding `Cc1ccc(O)c(NC(=O)c2nc(N)n(C)n2)c1`, the IC50 worked out at 0.196 µM in series [1] (Trypanosoma brucei, STIB 795) and 1.84 µM in series [2].
For `CCC1CO/C(=C2\Sc3ccccc3C2=O)N1` (stereo unspecified) the same measures were 5.08 µM and greater than 20.8 µM.
For `CN(C)C(=S)N/N=C1\Cc2ccccc2C1=O` the same measures were 0.989 µM and greater than 20.8 µM.
In the case of `Oc1c(/N=N/c2ccccn2)ccc2ccccc12`, the IC50 in series [1] (Trypanosoma brucei, STIB 795) is 0.718 µM; in series [2], greater than 20.8 µM.
For `N=c1n(Cc2ccccc2)c2ccccc2n1CC(O)c1ccc(Cl)cc1` (stereo unspecified), the IC50 is 5.31 µM in series [1]; 5.48 µM in series [1] (Trypanosoma brucei, STIB 795); greater than 20.8 µM in series [2].
With `N#Cc1ccccc1N=NNc1ccccc1C#N`, the half-maximal inhibitory concentration (IC50) in series [1] (Trypanosoma brucei, STIB 795) is 5.08 µM; in series [2], greater than 41.7 µM.
Regarding `CC1=CC(C)(C)N=C(Nc2nc(C)c3cc(C)cc(C)c3n2)N1`, the IC50 in series [1] (Trypanosoma brucei, STIB 795) was determined as 3.73 µM; in series [2] it was 5.93 µM.
`CN1CCN(Nc2ccnc3cc4ccccc4cc23)CC1`: the IC50 in series [1] (Trypanosoma brucei, STIB 795) amounted to 0.357 µM; in series [2], 3.36 µM.
As for `Cc1cc(NC2CCCCC2)nc(NCc2ccccc2)n1`, the IC50 in series [1] (Trypanosoma brucei, STIB 795) is 4.49 µM; in series [2] it was greater than 41.7 µM.
As to `Oc1c(CN2CCCCC2)ccc2cccnc12`, the half-maximal inhibitory concentration (IC50) was 3.78 µM in series [1] (Trypanosoma brucei, STIB 795) and greater than 4.17 µM in series [2].
For `O=C1c2ccccc2C(=O)c2c1ccc1nonc21` the same measures were 0.394 µM and greater than 20.8 µM.
On to `CCCc1c(CC)c(=N)c2ccccc2n1C`, for which the IC50 in series [1] (Trypanosoma brucei, STIB 795) is 4.55 µM; in series [2], greater than 41.7 µM.
In the same order, the values of `CCN1C(C)=C(C)S/C1=C\c1ccc2cc(C)ccc2[n+]1C` are 0.317 µM and greater than 4.17 µM.
For `CC(C)(C)C1CCc2nc(N)nc(N)c2C1` (stereo unspecified) the same measures were no more than 3.36 µM and greater than 4.17 µM.
In the same order, the values of `COc1cc2nc(N(C)C)nc(N)c2cc1OC` are 5.21 µM and greater than 20.8 µM.
